Patent US9328386B2, “Markers for susceptibility to an inhibitor of an Src-family kinase” (Evotec (München) GmbH, priority 2011, dated 2016)
Where two headings read alike, the source gives them in different places.

What was measured:
Experiment in all cases: Cellular growth inhibition (CellTiter Glo viability assay)
Type in all cases: cell-based
Calu6 NSCLC cell line = details: Homo sapiens
H1395 NSCLC cell line = details: Homo sapiens
H157 NSCLC cell line = details: Homo sapiens
H1648 NSCLC cell line = details: Homo sapiens
H1666 NSCLC cell line = details: Homo sapiens
H2009 NSCLC cell line = details: Homo sapiens
H2030 NSCLC cell line = details: Homo sapiens
H2077 NSCLC cell line = details: Homo sapiens
H2172 NSCLC cell line = details: Homo sapiens
H460 NSCLC cell line = details: Homo sapiens
H520 NSCLC cell line = details: Homo sapiens
LouNH91 NSCLC cell line = details: Homo sapiens
HCC366 NSCLC cell line = details: Homo sapiens
HCC4006 NSCLC cell line = details: Homo sapiens
HCC78 NSCLC cell line = details: Homo sapiens
H322M NSCLC cell line = details: Homo sapiens, NCI-H322M
HCC2279 NSCLC cell line = details: Homo sapiens
PC9 NSCLC cell line = details: Homo sapiens
[1] = Calu-6, 96 hours of treatment, read-out: GI50
[2] = NCI-H1395, H1395, 96 hours of treatment, read-out: GI50
[3] = NCI-H157, H157, 96 hours of treatment, read-out: GI50
[4] = NCI-H1648, H1648, 96 hours of treatment, read-out: GI50
[5] = NCI-H1666, H1666, 96 hours of treatment, read-out: GI50
[6] = NCI-H2009, H2009, 96 hours of treatment, read-out: GI50
[7] = NCI-H2030, H2030, 96 hours of treatment, read-out: GI50
[8] = 96 h, read-out: GI50 this paper
[9] = H2077, 96 hours of treatment, read-out: GI50
[10] = NCI-H2172, H2172, 96 hours of treatment, read-out: GI50
[11] = NCI-H460, H460, 96 hours of treatment, read-out: GI50
[12] = NCI-H520, H520, 96 hours of treatment, read-out: GI50
[13] = LOU-NH91, LouNH91, 96 hours of treatment, read-out: GI50
[14] = HCC366, 96 hours of treatment, read-out: GI50
[15] = HCC4006, 96 hours of treatment, read-out: GI50
[16] = HCC78, 96 hours of treatment, read-out: GI50
[17] = H322M, 96 hours of treatment, read-out: GI50
[18] = HCC2279, 96 hours of treatment, read-out: GI50
[19] = PC9, 96 hours of treatment, read-out: GI50

Cc1nc(Nc2ncc(C(=O)Nc3c(C)cccc3Cl)s2)cc(N2CCN(CCO)CC2)n1 [dasatinib, N-(2-chloro-6-methylphenyl)-2-[[6-[4-(2-hydroxyethyl)piperazin-1-yl]-2-methylpyrimidin-4-yl]amino]-1,3-thiazole-5-carboxamide]
GI50 (Calu6 NSCLC cell line; Calu-6, 96 h, read-out: GI50 this paper): 2800 nM
IC50 (Calu6 NSCLC cell line; Calu-6, read-out: Sensitivity Dasatinib): > 1000 nM
GI50 (Calu6 NSCLC cell line; [1]): 2800 nM
GI50 (H1395 NSCLC cell line; NCI-H1395, 96 h, read-out: GI50 this paper): 4700 nM
IC50 (H1395 NSCLC cell line; NCI-H1395, read-out: Sensitivity Dasatinib): > 1000 nM
GI50 (H1395 NSCLC cell line; [2]): 4700 nM
GI50 (H157 NSCLC cell line; NCI-H157, 96 h, read-out: GI50 this paper): 2630 nM
IC50 (H157 NSCLC cell line; NCI-H157, read-out: Sensitivity Dasatinib): > 1000 nM
GI50 (H157 NSCLC cell line; [3]): 2630 nM
GI50 (H1648 NSCLC cell line; NCI-H1648, 96 h, read-out: GI50 this paper): 79 nM
IC50 (H1648 NSCLC cell line; NCI-H1648, read-out: Sensitivity Dasatinib): < 1000 nM
GI50 (H1648 NSCLC cell line; [4]): 79 nM
GI50 (H1666 NSCLC cell line; NCI-H1666, 96 h, read-out: GI50 this paper): 76 nM
IC50 (H1666 NSCLC cell line; NCI-H1666, read-out: Sensitivity Dasatinib): < 1000 nM
GI50 (H1666 NSCLC cell line; [5]): 76 nM
GI50 (H2009 NSCLC cell line; NCI-H2009, 96 h, read-out: GI50 this paper): 85 nM
IC50 (H2009 NSCLC cell line; NCI-H2009, read-out: Sensitivity Dasatinib): < 1000 nM
GI50 (H2009 NSCLC cell line; [6]): 85 nM
GI50 (H2030 NSCLC cell line; NCI-H2030, 96 h, read-out: GI50 this paper): 22 nM
IC50 (H2030 NSCLC cell line; NCI-H2030, read-out: Sensitivity Dasatinib): < 1000 nM
GI50 (H2030 NSCLC cell line; [7]): 22 nM
GI50 (H2077 NSCLC cell line; [8]): 4750 nM
IC50 (H2077 NSCLC cell line; read-out: Sensitivity Dasatinib, H2077): > 1000 nM
GI50 (H2077 NSCLC cell line; [9]): 4750 nM
GI50 (H2172 NSCLC cell line; NCI-H2172, 96 h, read-out: GI50 this paper): 5850 nM
IC50 (H2172 NSCLC cell line; NCI-H2172, read-out: Sensitivity Dasatinib): > 1000 nM
GI50 (H2172 NSCLC cell line; [10]): 5850 nM
GI50 (H460 NSCLC cell line; NCI-H460, 96 h, read-out: GI50 this paper): 3900 nM
IC50 (H460 NSCLC cell line; NCI-H460, read-out: Sensitivity Dasatinib): > 1000 nM
GI50 (H460 NSCLC cell line; [11]): 3900 nM
GI50 (H520 NSCLC cell line; NCI-H520, 96 h, read-out: GI50 this paper): 1430 nM
IC50 (H520 NSCLC cell line; NCI-H520, read-out: Sensitivity Dasatinib): > 1000 nM
GI50 (H520 NSCLC cell line; [12]): 1430 nM
GI50 (LouNH91 NSCLC cell line; LOU-NH91, 96 h, read-out: GI50 this paper): 68 nM
IC50 (LouNH91 NSCLC cell line; LOU-NH91, read-out: Sensitivity Dasatinib, LouNH91): < 1000 nM
GI50 (LouNH91 NSCLC cell line; [13]): 68 nM
GI50 (HCC366 NSCLC cell line; HCC366, 96 h, read-out: GI50 this paper): 17 nM
IC50 (HCC366 NSCLC cell line; HCC366, read-out: Sensitivity Dasatinib): < 1000 nM
GI50 (HCC366 NSCLC cell line; [14]): 17 nM
GI50 (HCC4006 NSCLC cell line; HCC4006, 96 h, read-out: GI50 this paper): 950 nM
IC50 (HCC4006 NSCLC cell line; HCC4006, read-out: Sensitivity Dasatinib): < 1000 nM
GI50 (HCC4006 NSCLC cell line; [15]): 950 nM
GI50 (HCC78 NSCLC cell line; HCC78, 96 h, read-out: GI50 this paper): 17000 nM
IC50 (HCC78 NSCLC cell line; HCC78, read-out: Sensitivity Dasatinib): > 1000 nM
GI50 (HCC78 NSCLC cell line; [16]): 17000 nM
GI50 (H322M NSCLC cell line; [8]): 311 nM
IC50 (H322M NSCLC cell line; read-out: Sensitivity Dasatinib): < 1000 nM
GI50 (H322M NSCLC cell line; [17]): 311 nM
GI50 (HCC2279 NSCLC cell line; [8]): 45 nM
IC50 (HCC2279 NSCLC cell line; read-out: Sensitivity Dasatinib, HCC2279): < 1000 nM
GI50 (HCC2279 NSCLC cell line; [18]): 45 nM
GI50 (PC9 NSCLC cell line; [8]): 20 nM
IC50 (PC9 NSCLC cell line; PC-9, read-out: Sensitivity Dasatinib, PC9): < 1000 nM
GI50 (PC9 NSCLC cell line; [19]): 20 nM

CN1CCN(CCOc2cc(OC3CCOCC3)c3c(Nc4c(Cl)ccc5c4OCO5)ncnc3c2)CC1 [saracatinib, N-(5-Chloro-1,3-benzodioxol-4-yl)-7-[2-(4-methyl-1-piperazinyl)ethoxy]-5-[(tetrahydro-2H-pyran-4-yl)oxy]-4-quinazolinamine]
IC50 (Calu6 NSCLC cell line; Calu-6, read-out: Sensitivity Saracatinib): > 3500 nM
GI50 (Calu6 NSCLC cell line; [1]): 30000 nM
IC50 (H1395 NSCLC cell line; NCI-H1395, read-out: Sensitivity Saracatinib): > 3500 nM
GI50 (H1395 NSCLC cell line; [2]): 31700 nM
IC50 (H157 NSCLC cell line; NCI-H157, read-out: Sensitivity Saracatinib): > 3500 nM
GI50 (H157 NSCLC cell line; [3]): 13900 nM
IC50 (H1648 NSCLC cell line; NCI-H1648, read-out: Sensitivity Saracatinib): < 3500 nM
GI50 (H1648 NSCLC cell line; [4]): 1510 nM
IC50 (H1666 NSCLC cell line; NCI-H1666, read-out: Sensitivity Saracatinib): < 3500 nM
GI50 (H1666 NSCLC cell line; [5]): 2200 nM
IC50 (H2009 NSCLC cell line; NCI-H2009, read-out: Sensitivity Saracatinib): > 3500 nM
GI50 (H2009 NSCLC cell line; [6]): 4310 nM
IC50 (H2030 NSCLC cell line; NCI-H2030, read-out: Sensitivity Saracatinib): < 3500 nM
GI50 (H2030 NSCLC cell line; [7]): 443 nM
IC50 (H2077 NSCLC cell line; read-out: Sensitivity Saracatinib, H2077): > 3500 nM
GI50 (H2077 NSCLC cell line; [9]): 14800 nM
IC50 (H2172 NSCLC cell line; NCI-H2172, read-out: Sensitivity Saracatinib): > 3500 nM
GI50 (H2172 NSCLC cell line; [10]): 28500 nM
IC50 (H460 NSCLC cell line; NCI-H460, read-out: Sensitivity Saracatinib): > 3500 nM
GI50 (H460 NSCLC cell line; [11]): 12100 nM
IC50 (H520 NSCLC cell line; NCI-H520, read-out: Sensitivity Saracatinib): > 3500 nM
GI50 (H520 NSCLC cell line; [12]): 4560 nM
IC50 (LouNH91 NSCLC cell line; LOU-NH91, read-out: Sensitivity Saracatinib, LouNH91): < 3500 nM
GI50 (LouNH91 NSCLC cell line; [13]): 1180 nM
IC50 (HCC366 NSCLC cell line; HCC366, read-out: Sensitivity Saracatinib): < 3500 nM
GI50 (HCC366 NSCLC cell line; [14]): 1240 nM
IC50 (HCC4006 NSCLC cell line; HCC4006, read-out: Sensitivity Saracatinib): < 3500 nM
GI50 (HCC4006 NSCLC cell line; [15]): 132 nM
IC50 (HCC78 NSCLC cell line; HCC78, read-out: Sensitivity Saracatinib): < 3500 nM
GI50 (HCC78 NSCLC cell line; [16]): 267 nM
IC50 (H322M NSCLC cell line; read-out: Sensitivity Saracatinib): < 3500 nM
GI50 (H322M NSCLC cell line; [17]): 876 nM
IC50 (HCC2279 NSCLC cell line; read-out: Sensitivity Saracatinib, HCC2279): < 3500 nM
GI50 (HCC2279 NSCLC cell line; [18]): 660 nM
IC50 (PC9 NSCLC cell line; PC-9, read-out: Sensitivity Saracatinib, PC9): < 3500 nM
GI50 (PC9 NSCLC cell line; [19]): 147 nM
